Data from patent US6033891A, “Nucleic acids encoding polypeptides having cellobiose dehydrogenase activity” (Novo Nordisk Biotech, Inc., priority 1999, dated 2000).
Like-named read-outs stand apart in the source and are kept apart here.

Molecular target: T1, Humicola insolens cellobiose dehydrogenase, wild type (major form, 92 kDa, pI 4.0, purified from CELLUZYME), SEQ ID NO:2 (Mycothermus thermophilus, UniProt Q9P8H5)
T1 construct: mature 22-785 after 21-residue signal peptide
T1 sequence (Q9P8H5 22-785): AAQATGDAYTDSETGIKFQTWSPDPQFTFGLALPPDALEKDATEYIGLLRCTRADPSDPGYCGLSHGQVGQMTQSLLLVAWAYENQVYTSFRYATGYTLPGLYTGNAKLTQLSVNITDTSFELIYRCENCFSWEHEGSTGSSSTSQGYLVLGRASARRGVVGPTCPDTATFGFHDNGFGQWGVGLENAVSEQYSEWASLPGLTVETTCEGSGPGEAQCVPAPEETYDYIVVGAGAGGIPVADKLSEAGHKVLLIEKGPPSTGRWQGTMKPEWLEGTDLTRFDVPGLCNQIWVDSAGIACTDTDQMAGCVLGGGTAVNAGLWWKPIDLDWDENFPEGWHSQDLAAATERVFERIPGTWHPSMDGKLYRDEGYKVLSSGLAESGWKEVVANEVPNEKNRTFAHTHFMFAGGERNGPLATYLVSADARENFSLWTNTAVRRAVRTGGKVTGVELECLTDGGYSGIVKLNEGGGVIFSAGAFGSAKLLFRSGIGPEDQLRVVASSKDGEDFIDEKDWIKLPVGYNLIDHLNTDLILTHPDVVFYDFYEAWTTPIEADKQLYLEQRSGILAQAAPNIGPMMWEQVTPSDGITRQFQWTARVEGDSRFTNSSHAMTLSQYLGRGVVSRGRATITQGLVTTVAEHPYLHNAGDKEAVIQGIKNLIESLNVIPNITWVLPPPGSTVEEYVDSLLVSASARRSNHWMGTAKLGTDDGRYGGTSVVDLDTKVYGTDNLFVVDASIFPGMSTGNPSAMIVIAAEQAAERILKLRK
Experiment: Steady-state kinetics of cellobiose dehydrogenase with electron donors and acceptors (Lineweaver-Burke plots)
Type: biochemical
Details: 0.1 M sodium phosphate pH 7.5, 40° C.; for kcat (electron donor sugar) / kcat (electron acceptor): mol of oxidized cellobiose/s/mol of enzyme
Experimental: All absorption spectra and kinetic measurements were recorded on a Hewlett-Packard 8452A Diode Array Spectrophotometer in 0.75 ml black cuvettes with 1 cm optical path. The fluorescence spectra were recorded on a PERKIN ELMER LS 50.
Potassium ferricyanide (Merck): ε420 =970 M^-1.cm^-1, 3,5-di-tert-butyl-1,2-benzoquinone (Merck): ε410 =1,400 M^-1.cm^-1, Methylene Blue (Merck): ε610 =42,000 M^-1.cm^-1, cytochrome c (Sigma, from horse heart): ε550 =8,000 M^-1.cm^-1.
All measurements were performed in 0.1 M sodium phosphate pH 7.5 buffer at 40° C. […] The reactions were monitored for 400 s as changes in absorbance at the appropriate wavelength (see above). The benzoquinone was dissolved in ethanol to a concentration of 10 mM and diluted in phosphate buffer to the appropriate concentration. The catalytic constants (kcat) were expressed as mol of oxidized cellobiose/s/mol of enzyme. One equivalent of DCPIP, Methylene Blue, or benzoquinone oxidizes one equivalent of cellobiose whereas two equivalents of cytochrome c or ferricyanide oxidizes one equivalent of cellobiose. The kinetic constants were determined using Lineweaver-Burke plots and were the result of dual determinations.

[1] = sugar + 90 μM DCPIP, read-out: Km (electron donor sugar)
[2] = electron acceptor + 225 μM cellobiose
[3] = electron acceptor + 225 μM cellobiose, read-out: Km (electron acceptor)

Row | SMILES | kcat (electron donor sugar) (sugar + 90 μM DCPIP) [s⁻¹] | Km [1] [µM] | kcat (electron acceptor) [2] [s⁻¹] | Km [3] [µM]
1 | CC(=O)N[C@H]1[C@H](O[C@H]2[C@H](O)[C@@H](NC(C)=O)C(O)O[C@@H]2CO)O[C@H](CO)[C@@H](O)[C@@H]1O (stereo partly drawn) [N,N-Diacetylchitobiose, N,N-diacetylchitobiose] | 0 |  |  | 
2 | OC[C@H]1O[C@@H](O[C@H]2[C@H](O)[C@@H](O)C(O)O[C@@H]2CO)[C@H](O)[C@@H](O)[C@@H]1O (stereo partly drawn) [Cellobiose] | 10 | 11 |  | 
3 | OC[C@H]1OC(O)[C@H](O)[C@@H](O)[C@@H]1O (stereo partly drawn) [Glucose] | 0 |  |  | 
4 | O=C1C(Cl)=CC(=Nc2ccc(O)cc2)C=C1Cl [DCPIP, 2,6-dichlorophenolindophenol] |  |  | 12 | 26
5 | OC1OC[C@@H](O[C@@H]2OC[C@@H](O)[C@H](O)[C@H]2O)[C@H](O)[C@H]1O (stereo partly drawn) [Xylobiose] | 2.15 |  |  | 
6 | CC(=O)N[C@H]1C(O)O[C@H](CO)[C@@H](O[C@@H]2O[C@H](CO)[C@H](O)[C@H](O)[C@H]2O)[C@@H]1O (stereo partly drawn) [N-Acetyllactosamine, N-acetyllactosamine] | 0 |  |  | 
7 | CN(C)c1ccc2nc3ccc(=[N+](C)C)cc-3sc2c1 [Methylene Blue] |  |  | 1.85 | 18
8 | OC[C@H]1O[C@@H](O[C@H]2[C@H](O)[C@@H](O)[C@H](O[C@H]3[C@H](O)[C@@H](O)[C@H](O[C@H]4[C@H](O)[C@@H](O)[C@H](O[C@H]5[C@H](O)[C@@H](O)C(O)O[C@@H]5CO)O[C@@H]4CO)O[C@@H]3CO)O[C@@H]2CO)[C@H](O)[C@@H](O)[C@@H]1O (stereo partly drawn) [Cellopentaose] | 8.3 |  |  | 
9 | OC[C@H]1O[C@H](O[C@H]2[C@H](O)[C@@H](O)[C@H](O)O[C@@H]2CO)[C@H](O)[C@@H](O)[C@@H]1O [Maltose] | 0.83 | 11000 |  | 
10 | OC[C@H]1O[C@@H](O[C@H]2[C@H](O)[C@@H](O)C(O)O[C@@H]2CO)[C@H](O)[C@@H](O)[C@H]1O (stereo partly drawn) [Lactose] | 10 | 51 |  | 
